The values that follow come from publication PMC11449769, “Structure-based virtual screening towards the discovery of novel thrombin inhibitors with Anti-HCC activities” (Frontiers in Chemistry, 2024).

The test system of data set [1] is Hep3B, HepG2, HCCLM3 and HUh7 cells. The data set can be described thus: Thrombin-induced accelerated proliferation of HCC cells (MTS). The data set is classed as cell-based. The settings on record: 0.5 μM drug, 0.5 U/mL thrombin; for thrombin-induced accelerated proliferation of tumor cells: 12 and 36 h, 4 liver cancer cell lines. The procedure:
Cell lines Hep3B, HepG2, HCCLM3 and HUh7 were purchased from Shanghai Biolaf Biotechnology Co., Ltd., and certified by short tandem repeat profiling and mycoplasma and cell vitality testing. The proliferation rate was determined using a cell proliferation assay kit (TOPSCIENCE, C0005). Briefly, cells were seeded in 96-well plates at a concentration of 10,000 cells/well. MTS was added and incubated at 37°C for 2 h. The absorbance was measured at a wavelength of 490 nm. Three independent experiments were per-formed for each assay.

The target of data set [2] is T1, thrombin (Homo sapiens, UniProt P00734).
T1 construct: a light chain A composed of 39 amino acid residues and a heavy chain B composed of 259 amino acid residues; purchased China National Institute for the Control of Pharmaceutical and Biological Products
Put plainly: In vitro thrombin inhibition assay (fluorogenic substrate Ac-FVR-AMC). The class given is biochemical. The procedure:
Lyophilized thrombin, which was purchased from China National Institute for the Control of Pharmaceutical and Biological Products, was reconstituted (5.4 μg/mL), added to the diluted solution, and pre-incubated at 37°C for 10 min.
sample: initial velocity of compound group; VDMSO: initial velocity of blank group, treated with DMSO alone; Inhibition rate (%) = 100/[1 + 10 (LogIC50−X)h], h represents Hill coefficient.

A further data set has as its system platelets. Put plainly: Thrombin-induced platelet aggregation in vitro. The class given is cell-based, rats. The settings on record: drugs 3 mg/mL; thrombin 0.2 U/mL. The procedure: Blood was collected from rats and centrifuged for 10mins to obtain platelet-rich plasma, which was centrifuged again to collected platelets. The platelets were resus-pended and diluted to a concentration of 5 × 10^5/mL. PRP ([…]), and thrombin ([…]) were added to the platelet suspension in each group and incubated at 37°C. After incubation for 120 s, the reaction solution was well-mixed, and the same amount of thrombin ([…]) was added to a final concentration of 0.2 U/mL.

Data set [3] addresses T1, thrombin. Put plainly: Thrombin time. The settings on record: drugs 3 mg/mL, thrombin 0.2 U/mL.
A further data set concerns HepG2 tumor. Put plainly: HepG2 tumor model in BALB/c nude mice. The settings on record: 28 days.
In another data set the test system is BALB/c nude mice. The data set can be described thus: Single oral dose tolerance in BALB/c nude mice. The class given is in vivo. The settings on record: single oral administration of 500 mg/kg, 24 h.
[4] abbreviates: thrombin 5.4 μg/mL, substrate 5 μM, 37°C, read-out: IC50.

Entries after “also recorded” stand apart in the source; their conditions may differ. Structures can show the parent of a compound that is named as a salt. Where two headings read alike, the source gives them in different places.

Protocol for HepG2 tumor: 20,000 HepG2 cells were injected into the fat pad of each female Balb/c mouse. The long and short diameters of the tumor were measured using a caliper. Medication was started when a rumor size of 100 mm^3 was reached. Sorafenib, ZXX-4, and sorafenib combined with ZXX-4 were administered for 28 days. The body weight and tumor size of the mice were measured twice a week. The mice were sacrificed after 28 days of treatment, the tumor weight was measured, and the number of metastases was counted by Indian ink staining of the lung.

In general, IC50 refers to the point on the concentration scale where inhibition reaches its midpoint. As for LSKL [ZXX-2], in data set [1], the “thrombin-induced accelerated proliferation of tumor cells” value is listed as “reduced to different degrees”. In the data set with thrombin [2] (setting [4]), the 50% inhibitory concentration (IC50) amounted to 68 ± 12 nM. In addition, the platelet aggregation rate entry with platelets was “less than 50%”. Besides, the “thrombin time (in words)” value at thrombin [3] was “significantly prolonged”.

As to `Fc1ccc(Cl)c(COc2cccc3onc(Nc4cccnc4)c23)c1` [ZXX-5, SMS2-IN-2], the “thrombin-induced accelerated proliferation of tumor cells” value in data set [1] is given as “reduced to different degrees”. Besides, at thrombin [2] (setting [4]), the IC50 was found to be 45 ± 10 nM. In the data set with platelets, the platelet aggregation rate entry was “less than 50%”. Moreover, on thrombin [3], the “thrombin time (in words)” value is “significantly prolonged”.

Regarding `NCCOc1cc(C(=O)Nc2cc(OCCN)c3ccccc3n2)nc(C(=O)Nc2cc(OCCN)c3ccccc3n2)c1` [ZXX-20, Pyridostatin Trihydrochloride], on thrombin [2] (setting [4]), the IC50 turned out to be 98 ± 15 nM.

For the compound `C=C(c1ccccc1OCc1cccc(Cl)c1)n1ccnc1` [ZXX-11, CROCONAZOLE], the “thrombin-induced accelerated proliferation of tumor cells” value in data set [1] is “reduced to different degrees”. The compound also gave a 50% inhibitory concentration (IC50) against thrombin [2] of 72 ± 20 nM. Further, the platelet aggregation rate result in the data set with platelets is recorded as “less than 50%”. Also, the “thrombin time (in words)” value at thrombin [3] is reported as “significantly prolonged”.

For `CNC(=O)c1cc(Oc2ccc(NC(=O)Nc3ccc(Cl)c(C(F)(F)F)c3)cc2)ccn1` [sorafenib, reference compound], the tumor weight result with HepG2 tumor (ZXX-4 50 mg/kg/day and/or sorafenib 30 mg/kg/day, oral) is given as “slightly better than that of ZXX-4”.

On to “[Sarl, Ile8]-Angiotensin II acetate [ZXX-4]”, for which, in data set [1], the “relative activity on thrombin-induced proliferation” value is “highest activity, which was comparable to dabigatran etexilate” and the “thrombin-induced accelerated proliferation of tumor cells” value is reported as “reduced to different degrees”. Further, the IC50 with thrombin [2] (setting [4]) worked out at 23 ± 5 nM. In the data set with platelets, the platelet aggregation rate entry was “less than 50%” and the “platelet aggregation rate compared with dabigatran etexilate” value is “not significant”. Moreover, the HepG2 tumor growth result with HepG2 tumor (50 mg/kg/day oral) is on record as “inhibited HepG2 tumor growth”. In addition, the “number of lung metastatic nodules” value in the data set on HepG2 tumor (ZXX-4 50 mg/kg/day and/or sorafenib 30 mg/kg/day, oral, Indian ink staining) was “com-parable to that of sorafenib; also recorded: reduced tumor metastasis”. Also, in the data set on HepG2 tumor (ZXX-4 50 mg/kg/day with sorafenib 30 mg/kg/day, oral), the “effect on the efficacy of sorafenib” value is “enhanced”. In addition, at thrombin [3], the “thrombin time (in words)” value is “significantly prolonged”. Besides, the thrombin time on thrombin [3] (180 s = upper limit of detection) stood at 180 s. Also, in the data set with BALB/c nude mice, the “survival after single dose” value is recorded as “survived”.

Consider `CCCCCCOC(=O)N=C(N)c1ccc(NCc2nc3cc(C(=O)N(CCC(=O)OCC)c4ccccn4)ccc3n2C)cc1` [dabigatran etexilate, reference compound], for which, in data set [1], the “thrombin-induced accelerated proliferation of tumor cells” value is listed as “reduced to different degrees”. Further, the platelet aggregation rate entry in the data set on platelets was “less than 50%”.

On to “C-Reactive Protein (CRP) 201–206 acetate [ZXX-17]”, for which, in data set [1], the “thrombin-induced accelerated proliferation of tumor cells” value is listed as “reduced to different degrees”. Further, in the data set with thrombin [2] (setting [4]), the half-inhibitory concentration (IC50) turned out to be 52 ± 9 nM. Further, in the data set on platelets, the platelet aggregation rate result is recorded as “less than 50%”. The “thrombin time (in words)” value at thrombin [3] is reported as “significantly prolonged”.

Regarding Saralasin acetate [ZXX-1], in the data set with thrombin [2] (setting [4]), the IC50 came out at 175 ± 18 nM.
